Reference: patent US8163779B2, “Glucokinase activators” (Takeda San Diego, Inc., priority 2006, dated 2012)

Target: T1, glucokinase (GK) (Homo sapiens, UniProt P35557)
T1 construct: I.D. No. 1 corresponds to residues 12-465 of glucokinase; made in house; host or cells: E. coli DH10b-T1r
T1 sequence (P35557 with tags, fused parts or gaps isoform P35557-2): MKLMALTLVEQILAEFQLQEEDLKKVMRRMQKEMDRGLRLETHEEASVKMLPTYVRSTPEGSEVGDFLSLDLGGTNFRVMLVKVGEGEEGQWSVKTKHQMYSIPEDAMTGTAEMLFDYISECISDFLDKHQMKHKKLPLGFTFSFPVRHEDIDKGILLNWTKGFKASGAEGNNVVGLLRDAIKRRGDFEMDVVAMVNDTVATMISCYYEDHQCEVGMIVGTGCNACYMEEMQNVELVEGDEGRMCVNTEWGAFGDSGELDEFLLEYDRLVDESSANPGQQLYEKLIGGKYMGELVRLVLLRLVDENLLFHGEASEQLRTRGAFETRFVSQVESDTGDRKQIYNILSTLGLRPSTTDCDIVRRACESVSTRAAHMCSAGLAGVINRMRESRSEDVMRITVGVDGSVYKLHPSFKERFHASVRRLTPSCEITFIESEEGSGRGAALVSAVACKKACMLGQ
Experiment: enzymatic glucokinase activity assay (ATP consumption, KinaseGlo luminescence)
Format: biochemical
Conditions: recombinant GK residues 12-465; 5 μM ATP, 5 mM Glucose; Kact = concentration that displays 50% of the maximal increase in GK activity; read-out: pKact
From the text: The activity of compounds as glucokinase activators may be assayed in vitro, in vivo or in a cell line. Provided below is an enzymatic glucokinase activity assay.
Purified glucokinase may be obtained as follows. […] SEQ.
The expression of recombinant glucokinase protein may be carried out by transformation and growth of DH10b-T1r E. coli cells incorporating the (pFLAG-CTC) plasmid in LB media. Protein expression can be induced in this system by the addition of IPTG to the culture medium.
Recombinant protein may be isolated from cellular extracts by passage over Sepharose Q Fast Flow resin (Pharmacia). This partially purified GK extract may then be further purified by a second passage over Poros HQ 10 (Applied Biosystems). The purity of GK may be determined on denaturing SDS-PAGE gel. Purified GK may then be concentrated to a final concentration of 20.0 mg/ml. After flash freezing in liquid nitrogen, the proteins can be stored at −78° C. in a buffer containing 25 mM TRIS-HCl pH 7.6, 50 mM NaCl, and 0.5 mM TCEP.
The activation properties of compounds for GK may be determined using a black 384-well-plate format under the following reaction conditions: 25 mM Hepes pH 7.2, 25 mM NaCl, 10 mM MgCl2, 0.01% Brij35, 1 mM DTT, 5 μM ATP, 5 mM Glucose 2% DMSO. The amount of ATP consumed may be determined quantitatively by addition of equal volume of luciferase reagent (luciferase+beetle luciferin—KinaseGlo Luminescent Kinase Assay kit from Promega). The luminescence intensity may be measured by using the Analyst HT from LJL Biosystems.
The reaction mixture may then be incubated at room temperature for 60 min, and quenched and developed by addition of 10 μL of luciferase reagent. Luminescence intensities of the resulting reaction mixtures may be measured after a 10 min incubation at room temperature. The luminescence intensity may be measured by using the Analyst HT from LJL Biosystems.
pKact values may be calculated by non-linear curve fitting of the compound concentrations and luminescence intensities to a standard inhibition/activation equation.

| Compound | EC50 [µM] |
| --- | --- |
| Cc1cnc(NC(=O)C(CC2CCOCC2)n2ccc(OCc3ccccc3)cc2=O)s1 (stereo not drawn) [Example 55, 2-(4-(benzyloxy)-2-oxopyridin-1(2H)-yl)-N-(5-methylthiazol-2-yl)-3-(tetrahydro-2H-pyran-4-yl)propanamide] | 1.58 to 15.8 |
| N#Cc1cnc(NC(=O)[C@H](CC2CCOCC2)n2ccc(S(=O)(=O)C3CCCC3)cc2=O)s1 [Example 57, (S)-N-(5-cyanothiazol-2-yl)-2-(4-(cyclopentylsulfonyl)-2-oxopyridin-1(2H)-yl)-3-(tetrahydro-2H-pyran-4-yl)propanamide] | 1.58 to 15.8 |
| Cc1cc(Br)cc(=O)n1[C@@H](CC1CCCCC1)C(=O)Nc1nccs1 [Example 61, (S)-2-(4-bromo-6-methyl-2-oxopyridin-1(2H)-yl)-3-cyclohexyl-N-(thiazol-2-yl)propanamide] | > 15.8 |
| COc1ccc2nc(NC(=O)[C@@H](CC3CCOCC3)n3c(C)cc(S(=O)(=O)c4ccoc4C)cc3=O)sc2n1 [Example 63, (R)-N-(5-methoxythiazolo[5,4-b]pyridin-2-yl)-2-(6-methyl-4-(2-methylfuran-3-ylsulfonyl)-2-oxopyridin-1(2H)-yl)-3-(tetrahydro-2H-pyran-4-yl)propanamide] | > 15.8 |
| Cc1occc1S(=O)(=O)c1cc(C)n([C@@H](CC2CCOCC2)C(=O)Nc2ncc(Cl)s2)c(=O)c1 [Example 64, (S)-N-(5-chlorothiazol-2-yl)-2-(6-methyl-4-(2-methylfuran-3-ylsulfonyl)-2-oxopyridin-1(2H)-yl)-3-(tetrahydro-2H-pyran-4-yl)propanamide] | 1.58 to 15.8 |
| Cc1occc1S(=O)(=O)c1cc(C)n([C@H](CC2CCOCC2)C(=O)Nc2ncc(Cl)s2)c(=O)c1 [Example 65, (R)-N-(5-chlorothiazol-2-yl)-2-(6-methyl-4-(2-methylfuran-3-ylsulfonyl)-2-oxopyridin-1(2H)-yl)-3-(tetrahydro-2H-pyran-4-yl)propanamide] | > 15.8 |
| COc1ccc2nc(NC(=O)C(CC3CCOCC3)n3ccc(S(=O)(=O)CCCO)cc3=O)sc2n1 (stereo not drawn) [Example 67, 2-(4-(3-hydroxypropylsulfonyl)-2-oxopyridin-1(2H)-yl)-N-(5-methoxythiazolo[5,4-b]pyridin-2-yl)-3-(tetrahydro-2H-pyran-4-yl)propanamide] | > 15.8 |
| O=C(Nc1cnccn1)[C@@H](CC1CCOCC1)n1ccc(S(=O)(=O)C2CC2)cc1=O [Example 69, (R)-2-(4-(cyclopropylsulfonyl)-2-oxopyridin-1(2H)-yl)-N-(pyrazin-2-yl)-3-(tetrahydro-2H-pyran-4-yl)propanamide] | > 15.8 |
| COc1ccc2nc(NC(=O)[C@@H](CC3CCOCC3)n3ccc(S(=O)(=O)CCCO)cc3=O)sc2n1 [Example 71, (R)-2-(4-(3-hydroxypropylsulfonyl)-2-oxopyridin-1(2H)-yl)-N-(5-methoxythiazolo[5,4-b]pyridin-2-yl)-3-(tetrahydro-2H-pyran-4-yl)propanamide] | > 15.8 |
| Cn1ccc(NC(=O)[C@@H](CC2CCOCC2)n2ccc(S(=O)(=O)C3CC3)cc2=O)n1 [Example 73, (R)-2-(4-(cyclopropylsulfonyl)-2-oxopyridin-1(2H)-yl)-N-(1-methyl-1H-pyrazol-3-yl)-3-(tetrahydro-2H-pyran-4-yl)propanamide] | > 15.8 |
| COc1ccc2nc(NC(=O)[C@@H](CC3CCCCC3)n3ccc(S(=O)(=O)C4CC4)cc3=O)sc2n1 [Example 75, (R)-3-cyclohexyl-2-(4-(cyclopropylsulfonyl)-2-oxopyridin-1(2H)-yl)-N-(5-methoxythiazolo[5,4-b]pyridin-2-yl)propanamide] | 1.58 to 15.8 |
| COc1ccc2nc(NC(=O)[C@H](CC3CCCCC3)n3ccc(S(=O)(=O)C4CC4)cc3=O)sc2n1 [Example 76, (S)-3-cyclohexyl-2-(4-(cyclopropylsulfonyl)-2-oxopyridin-1(2H)-yl)-N-(5-methoxythiazolo[5,4-b]pyridin-2-yl)propanamide] | < 1.58 |

The remaining lines, values ahead:

| EC50 [µM] | Compound |
| --- | --- |
| 1.58 to 15.8 | O=C(Nc1nc2cccnc2s1)[C@H](CC1CCOCC1)n1ccc(S(=O)(=O)C2CC2)cc1=O [Example 52, (S)-2-(4-(cyclopropylsulfonyl)-2-oxopyridin-1(2H)-yl)-3-(tetrahydro-2H-pyran-4-yl)-N-(thiazolo[5,4-b]pyridin-2-yl)propanamide] |
| > 15.8 | CS(=O)(=O)c1ccn(C(CC2CCOCC2)C(=O)Nc2ncc(CCC(=O)O)s2)c(=O)c1 (stereo not drawn) [Example 53, 3-(2-(2-(4-(methylsulfonyl)-2-oxopyridin-1(2H)-yl)-3-(tetrahydro-2H-pyran-4-yl)propanamido)thiazol-5-yl)propanoic acid] |
| < 1.58 | Cc1occc1S(=O)(=O)c1cc(C)n(C(CC2CCCCC2)C(=O)Nc2ncc(Cl)s2)c(=O)c1 (stereo not drawn) [Example 54, N-(5-chlorothiazol-2-yl)-3-cyclohexyl-2-(6-methyl-4-(2-methylfuran-3-ylsulfonyl)-2-oxopyridin-1(2H)-yl)propanamide] |
| > 15.8 | N#Cc1cnc(NC(=O)[C@@H](CC2CCOCC2)n2ccc(S(=O)(=O)C3CCCC3)cc2=O)s1 [Example 56, (R)-N-(5-cyanothiazol-2-yl)-2-(4-(cyclopentylsulfonyl)-2-oxopyridin-1(2H)-yl)-3-(tetrahydro-2H-pyran-4-yl)propanamide] |
| > 15.8 | COc1ccc2nc(NC(=O)[C@@H](CC3CCOCC3)n3ccc(S(=O)(=O)C4CCCC4)cc3=O)sc2n1 [Example 58, (R)-2-(4-(cyclopentylsulfonyl)-2-oxopyridin-1(2H)-yl)-N-(5-methoxythiazolo[5,4-b]pyridin-2-yl)-3-(tetrahydro-2H-pyran-4-yl)propanamide] |
| < 1.58 | COc1ccc2nc(NC(=O)[C@H](CC3CCOCC3)n3ccc(S(=O)(=O)C4CCCC4)cc3=O)sc2n1 [Example 59, (S)-2-(4-(cyclopentylsulfonyl)-2-oxopyridin-1(2H)-yl)-N-(5-methoxythiazolo[5,4-b]pyridin-2-yl)-3-(tetrahydro-2H-pyran-4-yl)propanamide] |
| < 1.58 | Cc1cc(S(=O)(=O)c2cccs2)cc(=O)n1C(CC1CCCCC1)C(=O)Nc1ncc(Cl)s1 (stereo not drawn) [Example 60, N-(5-chlorothiazol-2-yl)-3-cyclohexyl-2-(6-methyl-2-oxo-4-(thiophen-2-ylsulfonyl)pyridin-1(2H)-yl)propanamide] |
| 1.58 to 15.8 | COc1ccc2nc(NC(=O)[C@H](CC3CCOCC3)n3c(C)cc(S(=O)(=O)c4ccoc4C)cc3=O)sc2n1 [Example 62, (S)-N-(5-methoxythiazolo[5,4-b]pyridin-2-yl)-2-(6-methyl-4-(2-methylfuran-3-ylsulfonyl)-2-oxopyridin-1(2H)-yl)-3-(tetrahydro-2H-pyran-4-yl)propanamide] |
| > 15.8 | Cn1ccc(NC(=O)C(CC2CCOCC2)n2ccc(S(=O)(=O)C3CC3)cc2=O)n1 (stereo not drawn) [Example 66, 2-(4-(cyclopropylsulfonyl)-2-oxopyridin-1(2H)-yl)-N-(1-methyl-1H-pyrazol-3-yl)-3-(tetrahydro-2H-pyran-4-yl)propanamide] |
| < 1.58 | COc1ccc2nc(NC(=O)C(CC3CCCCC3)n3ccc(S(=O)(=O)C4CC4)cc3=O)sc2n1 (stereo not drawn) [Example 68, 3-cyclohexyl-2-(4-(cyclopropylsulfonyl)-2-oxopyridin-1(2H)-yl)-N-(5-methoxythiazolo[5,4-b]pyridin-2-yl)propanamide] |
| 1.58 to 15.8 | COc1ccc2nc(NC(=O)[C@H](CC3CCOCC3)n3ccc(S(=O)(=O)CCCO)cc3=O)sc2n1 [Example 72, (S)-2-(4-(3-hydroxypropylsulfonyl)-2-oxopyridin-1(2H)-yl)-N-(5-methoxythiazolo[5,4-b]pyridin-2-yl)-3-(tetrahydro-2H-pyran-4-yl)propanamide] |
| 1.58 to 15.8 | Cn1ccc(NC(=O)[C@H](CC2CCOCC2)n2ccc(S(=O)(=O)C3CC3)cc2=O)n1 [Example 74, (S)-2-(4-(cyclopropylsulfonyl)-2-oxopyridin-1(2H)-yl)-N-(1-methyl-1H-pyrazol-3-yl)-3-(tetrahydro-2H-pyran-4-yl)propanamide] |
